PMC5218480 (PLoS ONE, 2017)

Tested on: MV-4-11 cells
Test: Gene expression microarray analysis (Affymetrix PrimeView) and GSEA
Format: cell-based, human
Design: RFU PODN (11730768_x_at) / Fold change /veh PODN (11730768_x_at) / RFU LINC00158 (11744669_a_at) / Fold change /veh LINC00158 (11744669_a_at) / RFU DUSP10 (11751237_a_at) / Fold change /veh DUSP10 (11751237_a_at) / RFU ID3 (11757404_x_at) / Fold change /veh ID3 (11757404_x_at) / RFU PLEKHG5 (11737974_s_at) / Fold change /veh PLEKHG5 (11737974_s_at) / RFU LRRC4B (11730491_at) / Fold change /veh LRRC4B (11730491_at) / RFU GIMAP4 (11747438_a_at) / Fold change /veh GIMAP4 (11747438_a_at) / RFU KRT8 (11758183_x_at) / Fold change /veh KRT8 (11758183_x_at) / RFU CNN1 (11734310_a_at) / Fold change /veh CNN1 (11734310_a_at) / RFU VPS37D (11726825_at) / Fold change /veh VPS37D (11726825_at) / RFU C10orf10 (11716522_x_at) / Fold change /veh C10orf10 (11716522_x_at) / RFU KIR2DL2 /// KIR2DL4 /// KIR2DL5A /// KIR2DL5B /// KIR2DS1 /// KIR2DS2 /// KIR2DS3 /// KIR2DS4 /// KIR3DL3 /// KIR3DL3 /// KIR3DS1 (11738374_at) / Fold change /veh KIR2DL2 /// KIR2DL4 /// KIR2DL5A /// KIR2DL5B /// KIR2DS1 /// KIR2DS2 /// KIR2DS3 /// KIR2DS4 /// KIR3DL3 /// KIR3DL3 /// KIR3DS1 (11738374_at) / RFU C1QL1 (11718748_at) / Fold change /veh C1QL1 (11718748_at) / RFU TMPRSS4 (11747572_a_at) / Fold change /veh TMPRSS4 (11747572_a_at) / RFU HAMP (11756126_x_at) / Fold change /veh HAMP (11756126_x_at) / RFU RNFT2 (11725882_a_at) / Fold change /veh RNFT2 (11725882_a_at) / RFU NR4A2 (11747474_a_at) / Fold change /veh NR4A2 (11747474_a_at) / RFU ABCC12 (11746883_a_at) / Fold change /veh ABCC12 (11746883_a_at) / RFU TMEM136 (11760407_x_at) / Fold change /veh TMEM136 (11760407_x_at) / RFU CLDN22 /// WWC2 (11732394_at) / Fold change /veh CLDN22 /// WWC2 (11732394_at) / RFU HLA-DPB1 (11760878_x_at) / Fold change /veh HLA-DPB1 (11760878_x_at) / RFU SPINT1 (11716480_a_at) / Fold change /veh SPINT1 (11716480_a_at) / RFU GAP43 (11754022_s_at) / Fold change /veh GAP43 (11754022_s_at) / RFU A4GNT (11735810_at) / Fold change /veh A4GNT (11735810_at) / RFU PRB3 (11715151_x_at) / Fold change /veh PRB3 (11715151_x_at) / RFU TUBB4B (11761932_at) / Fold change /veh TUBB4B (11761932_at) / RFU CAPN14 (11732068_a_at) / Fold change /veh CAPN14 (11732068_a_at) / RFU TMCC2 (11721928_a_at) / Fold change /veh TMCC2 (11721928_a_at) / RFU IRGQ (11745062_a_at) / Fold change /veh IRGQ (11745062_a_at) / RFU FAM174B (11720279_a_at) / Fold change /veh FAM174B (11720279_a_at) / RFU TMPRSS4 (11748680_a_at) / Fold change /veh TMPRSS4 (11748680_a_at) / RFU FAM212B (11763350_a_at) / Fold change /veh FAM212B (11763350_a_at) / RFU PLEKHG5 (11743358_a_at) / Fold change /veh PLEKHG5 (11743358_a_at) / RFU ZSCAN30 (11745921_a_at) / Fold change /veh ZSCAN30 (11745921_a_at) / RFU CMKLR1 (11741424_a_at) / Fold change /veh CMKLR1 (11741424_a_at) / RFU LOC101060620 /// MAPK8IP1 (11723275_at) / Fold change /veh LOC101060620 /// MAPK8IP1 (11723275_at) / RFU SPTSSB (11747773_x_at) / Fold change /veh SPTSSB (11747773_x_at) / RFU PRSS12 (11739890_at) / Fold change /veh PRSS12 (11739890_at) / RFU BIN1 (11741810_x_at) / Fold change /veh BIN1 (11741810_x_at) / RFU WNT11 (11732464_a_at) / Fold change /veh WNT11 (11732464_a_at) / RFU C10orf10 (11716521_a_at) / Fold change /veh C10orf10 (11716521_a_at) / RFU C5orf56 (11738089_at) / Fold change /veh C5orf56 (11738089_at) / RFU CYB561 (11721691_x_at) / Fold change /veh CYB561 (11721691_x_at) / RFU ANKRD19P (11752326_a_at) / Fold change /veh ANKRD19P (11752326_a_at) / RFU OR2T12 /// OR2T33 /// OR2T8 (11738714_s_at) / Fold change /veh OR2T12 /// OR2T33 /// OR2T8 (11738714_s_at) / RFU VCAN (11748164_a_at) / Fold change /veh VCAN (11748164_a_at) / RFU JSRP1 (11732532_at) / Fold change /veh JSRP1 (11732532_at) / RFU KRTAP10-11 (11738290_x_at) / Fold change /veh KRTAP10-11 (11738290_x_at) / RFU MYO3A (11730013_a_at) / Fold change /veh MYO3A (11730013_a_at) / RFU EBF3 (11725865_a_at) / Fold change /veh EBF3 (11725865_a_at) / RFU CAMK2N1 (11719241_x_at) / Fold change /veh CAMK2N1 (11719241_x_at) / RFU C5orf56 (11738088_a_at) / Fold change /veh C5orf56 (11738088_a_at) / RFU OLFML3 (11715873_a_at) / Fold change /veh OLFML3 (11715873_a_at) / RFU LOC100653217 /// NTM (11731650_a_at) / Fold change /veh LOC100653217 /// NTM (11731650_a_at) / RFU MAPK11 (11762145_a_at) / Fold change /veh MAPK11 (11762145_a_at) / RFU FIZ1 (11724087_x_at) / Fold change /veh FIZ1 (11724087_x_at) / RFU OASL (11726364_x_at) / Fold change /veh OASL (11726364_x_at) / RFU SOX15 (11748057_x_at) / Fold change /veh SOX15 (11748057_x_at) / RFU CD79A (11719716_a_at) / Fold change /veh CD79A (11719716_a_at) / RFU HIST1H1D (11736915_at) / Fold change /veh HIST1H1D (11736915_at) / RFU CASKIN2 (11723855_a_at) / Fold change /veh CASKIN2 (11723855_a_at) / RFU LOC730098 (11760151_x_at) / Fold change /veh LOC730098 (11760151_x_at) / RFU OR4N2 (11742367_at) / Fold change /veh OR4N2 (11742367_at) / RFU PRRT2 (11749266_a_at) / Fold change /veh PRRT2 (11749266_a_at) / RFU SNX32 (11753110_a_at) / Fold change /veh SNX32 (11753110_a_at) / RFU CDHR5 (11726645_a_at) / Fold change /veh CDHR5 (11726645_a_at) / RFU RCAN1 (11760418_a_at) / Fold change /veh RCAN1 (11760418_a_at) / RFU FAM167A (11723789_a_at) / Fold change /veh FAM167A (11723789_a_at) / RFU FAM26E (11764081_at) / Fold change /veh FAM26E (11764081_at) / RFU ISYNA1 (11749810_s_at) / Fold change /veh ISYNA1 (11749810_s_at) / RFU ACY1 (11761880_at) / Fold change /veh ACY1 (11761880_at) / RFU 11764098_at / Fold change /veh 11764098_at / RFU SAMD14 (11745864_x_at) / Fold change /veh SAMD14 (11745864_x_at) / RFU NPB (11741838_a_at) / Fold change /veh NPB (11741838_a_at) / RFU TMPRSS6 (11731388_a_at) / Fold change /veh TMPRSS6 (11731388_a_at) / RFU KRTAP10-2 (11738614_at) / Fold change /veh KRTAP10-2 (11738614_at) / RFU ARHGAP8 /// PRR5-ARHGAP8 (11727945_x_at) / Fold change /veh ARHGAP8 /// PRR5-ARHGAP8 (11727945_x_at) / RFU KRTAP5-7 /// NADSYN1 (11734609_at) / Fold change /veh KRTAP5-7 /// NADSYN1 (11734609_at) / RFU RASL12 (11751679_a_at) / Fold change /veh RASL12 (11751679_a_at) / RFU CDKN2B (11736163_a_at) / Fold change /veh CDKN2B (11736163_a_at) / RFU PRF1 (11729649_at) / Fold change /veh PRF1 (11729649_at) / RFU, ZNF638 /// ZNF638-IT1 / Fold change vs veh, ZNF638 /// ZNF638-IT1 / RFU, PANK3 / Fold change vs veh, PANK3 / RFU, SH3YL1 / Fold change vs veh, SH3YL1 / RFU, ZEB2 / Fold change vs veh, ZEB2 / RFU, NRIP1 / Fold change vs veh, NRIP1 / RFU, PTTG1IP / Fold change vs veh, PTTG1IP / RFU, CAPN2 / Fold change vs veh, CAPN2 / RFU, MED14 / Fold change vs veh, MED14 / RFU, SNORA58 / Fold change vs veh, SNORA58 / RFU, C1orf63 / Fold change vs veh, C1orf63 / RFU, LRRFIP1 / Fold change vs veh, LRRFIP1 / RFU, NDUFAF7 / Fold change vs veh, NDUFAF7 / RFU, SLC12A2 / Fold change vs veh, SLC12A2 / RFU, IBTK / Fold change vs veh, IBTK / RFU, ESF1 / Fold change vs veh, ESF1 / Fold change vs veh, TMEM50B / RFU, TAOK1 / Fold change vs veh, TAOK1 / RFU, ACBD3 / Fold change vs veh, ACBD3 / RFU, TMA16 / Fold change vs veh, TMA16 / RFU, RWDD3 / Fold change vs veh, RWDD3 / RFU, BCAT1 / Fold change vs veh, BCAT1 / RFU, EDEM3 / Fold change vs veh, EDEM3 / RFU, TMEM33 / Fold change vs veh, TMEM33 / RFU, WDR75 / Fold change vs veh, WDR75 / RFU, AHCTF1 / Fold change vs veh, AHCTF1 / RFU, TFRC / Fold change vs veh, TFRC / RFU, ZDHHC17 / Fold change vs veh, ZDHHC17 / RFU, NOM1 / Fold change vs veh, NOM1 / RFU, ARL8B / Fold change vs veh, ARL8B / RFU, ZBTB11 / Fold change vs veh, ZBTB11 / RFU, TAMM41 / Fold change vs veh, TAMM41 / RFU, KIAA1704 /// LOC100996395 / Fold change vs veh, KIAA1704 /// LOC100996395 / RFU, ING1 / Fold change vs veh, ING1 / RFU, TRMT61B / Fold change vs veh, TRMT61B / RFU, FUBP3 / Fold change vs veh, FUBP3 / RFU, TP53 / Fold change vs veh, TP53 / RFU, TNKS2 / Fold change vs veh, TNKS2 / RFU, ZFP14 / Fold change vs veh, ZFP14 / RFU, ACTR2 / Fold change vs veh, ACTR2 / RFU, PPP3R1 / Fold change vs veh, PPP3R1 / RFU, PIK3R1 / Fold change vs veh, PIK3R1 / RFU, HNRNPA1 / Fold change vs veh, HNRNPA1 / RFU, RNF170 / Fold change vs veh, RNF170 / RFU, ZNF28 / Fold change vs veh, ZNF28 / RFU, RNGTT / Fold change vs veh, RNGTT / RFU, OGT / Fold change vs veh, OGT / RFU, BRD1 / Fold change vs veh, BRD1 / RFU, MARS / Fold change vs veh, MARS / RFU, ZNF655 / Fold change vs veh, ZNF655 / RFU, FAHD1 / Fold change vs veh, FAHD1 / RFU, BDP1 / Fold change vs veh, BDP1 / RFU, LRRCC1 / Fold change vs veh, LRRCC1 / RFU, ARID1A / Fold change vs veh, ARID1A / RFU, ZNF146 / Fold change vs veh, ZNF146 / RFU, ZNF330 / Fold change vs veh, ZNF330 / RFU, GPN3 / Fold change vs veh, GPN3 / RFU, C9orf123 / Fold change vs veh, C9orf123 / RFU, N4BP2L2 / Fold change vs veh, N4BP2L2 / RFU, ARFIP1 / Fold change vs veh, ARFIP1 / RFU, FAM179B / Fold change vs veh, FAM179B / RFU, BCL10 / Fold change vs veh, BCL10 / RFU, UHRF1BP1L / Fold change vs veh, UHRF1BP1L / RFU, BET1 / Fold change vs veh, BET1 / RFU, CNOT2 / Fold change vs veh, CNOT2 / RFU, ZNF268 / Fold change vs veh, ZNF268 / Fold change vs veh, ZNF507 / RFU, DGCR2 / Fold change vs veh, DGCR2 / RFU, WDSUB1 / Fold change vs veh, WDSUB1 / Fold change vs veh, HSP90B1 /// MIR3652 / RFU, ADSS / Fold change vs veh, ADSS / RFU, GK / Fold change vs veh, GK / RFU, ZNF148 / Fold change vs veh, ZNF148 / RFU, TAF9 / Fold change vs veh, TAF9 / RFU, SLC1A5 / Fold change vs veh, SLC1A5 / RFU, SLMO2 / Fold change vs veh, SLMO2 / RFU, ABCC4 / Fold change vs veh, ABCC4 / RFU, LOC101060439 /// RAP1B / Fold change vs veh, LOC101060439 /// RAP1B / RFU, RFX7 / Fold change vs veh, RFX7 / RFU, GTPBP10 / Fold change vs veh, GTPBP10 / RFU, CNEP1R1 / Fold change vs veh, CNEP1R1 / RFU, BIVM-ERCC5 /// ERCC5 / Fold change vs veh, BIVM-ERCC5 /// ERCC5 / RFU, ILF3 / Fold change vs veh, ILF3 / RFU 11762660_at / Fold change /veh 11762660_at / RFU VCAN (11757783_s_at) / Fold change /veh VCAN (11757783_s_at) / RFU DDX43 (11728927_at) / Fold change /veh DDX43 (11728927_at) / RFU KRT8 (11758188_x_at) / Fold change /veh KRT8 (11758188_x_at) / RFU NKD1 (11759106_at) / Fold change /veh NKD1 (11759106_at) / RFU SRD5A1 (11742802_a_at) / Fold change /veh SRD5A1 (11742802_a_at) / RFU TPSAB1 /// TPSB2 (11721975_s_at) / Fold change /veh TPSAB1 /// TPSB2 (11721975_s_at) / RFU GSTM3 (11746129_a_at) / Fold change /veh GSTM3 (11746129_a_at) / RFU IL23R (11737362_x_at) / Fold change /veh IL23R (11737362_x_at) / RFU TMEM51 (11727254_a_at) / Fold change /veh TMEM51 (11727254_a_at) / RFU PIWIL2 (11732686_x_at) / Fold change /veh PIWIL2 (11732686_x_at) / RFU ORM1 (11744905_x_at) / Fold change /veh ORM1 (11744905_x_at) / RFU CCDC152 (11743942_at) / Fold change /veh CCDC152 (11743942_at) / RFU ECM1 (11717891_a_at) / Fold change /veh ECM1 (11717891_a_at) / RFU IL23R (11748794_a_at) / Fold change /veh IL23R (11748794_a_at) / RFU TNFAIP8L3 (11732012_x_at) / Fold change /veh TNFAIP8L3 (11732012_x_at) / RFU MBOAT4 (11741988_at) / Fold change /veh MBOAT4 (11741988_at) / RFU 11764193_at / Fold change /veh 11764193_at / RFU TMEM53 (11763286_at) / Fold change /veh TMEM53 (11763286_at) / RFU MAGEB2 (11727129_at) / Fold change /veh MAGEB2 (11727129_at) / RFU TMEM200A (11744735_a_at) / Fold change /veh TMEM200A (11744735_a_at) / RFU CCDC152 (11751479_a_at) / Fold change /veh CCDC152 (11751479_a_at) / RFU FAM211A (11726209_a_at) / Fold change /veh FAM211A (11726209_a_at) / RFU RGS16 (11746705_a_at) / Fold change /veh RGS16 (11746705_a_at) / RFU VCAN (11755009_s_at) / Fold change /veh VCAN (11755009_s_at) / RFU RHOB (11743442_s_at) / Fold change /veh RHOB (11743442_s_at) / RFU RGS16 (11720943_a_at) / Fold change /veh RGS16 (11720943_a_at) / RFU RGS16 (11720944_at) / Fold change /veh RGS16 (11720944_at) / RFU, VPS4B / Fold change vs veh, VPS4B / RFU, CREB1 / Fold change vs veh, CREB1 / RFU, DNAJC13 / Fold change vs veh, DNAJC13 / RFU, GNAQ / Fold change vs veh, GNAQ / RFU, CDK5R1 / Fold change vs veh, CDK5R1 / RFU, ZRANB3 / Fold change vs veh, ZRANB3 / RFU, CUL4A / Fold change vs veh, CUL4A / RFU, CCNY / Fold change vs veh, CCNY / RFU, UFL1 / Fold change vs veh, UFL1 / RFU, COG3 / Fold change vs veh, COG3 / RFU, DIAPH2 / Fold change vs veh, DIAPH2 / RFU, SKA2 / Fold change vs veh, SKA2 / RFU, AFF3 / Fold change vs veh, AFF3 / RFU, LMF1 / Fold change vs veh, LMF1 / RFU, IPO11 / Fold change vs veh, IPO11 / RFU, DFFB / Fold change vs veh, DFFB / RFU, FOXP1 / Fold change vs veh, FOXP1 / RFU, CARD8 / Fold change vs veh, CARD8 / RFU, STRN3 / Fold change vs veh, STRN3 / RFU, ADK / Fold change vs veh, ADK / RFU, RASSF2 / Fold change vs veh, RASSF2 / RFU, WIPF1 / Fold change vs veh, WIPF1 / RFU, LARP1B / Fold change vs veh, LARP1B / RFU, RASA1 / Fold change vs veh, RASA1 / RFU, RB1 / Fold change vs veh, RB1 / RFU, PPFIA1 / Fold change vs veh, PPFIA1 / RFU, MAT2A / Fold change vs veh, MAT2A / RFU, CCT5 / Fold change vs veh, CCT5 / RFU, WDR92 / Fold change vs veh, WDR92 / RFU, CUX1 / Fold change vs veh, CUX1 / RFU, TTC7A / Fold change vs veh, TTC7A / RFU, TMEM135 / Fold change vs veh, TMEM135 / RFU, DEPTOR / Fold change vs veh, DEPTOR / RFU, CPM / Fold change vs veh, CPM / RFU, DNAJB6 / Fold change vs veh, DNAJB6 / RFU, CACNA2D3 / Fold change vs veh, CACNA2D3 / RFU, DTX4 / Fold change vs veh, DTX4 / RFU, TFCP2 / Fold change vs veh, TFCP2 / RFU, GMCL1 /// GMCL1P1 / Fold change vs veh, GMCL1 /// GMCL1P1 / RFU, AEBP2 / Fold change vs veh, AEBP2 / RFU, SNHG1 /// SNORD22 /// SNORD25 /// SNORD26 /// SNORD27 /// SNORD28 /// SNORD29 /// SNORD31 / Fold change vs veh, SNHG1 /// SNORD22 /// SNORD25 /// SNORD26 /// SNORD27 /// SNORD28 /// SNORD29 /// SNORD31 / Fold change (Aza/veh), C12orf56 (ProbeSet 11735607_a_at) / Fold change (ACY-1035/veh), C12orf56 (ProbeSet 11735607_a_at) / Fold change (Aza/veh), FGFR1OP (ProbeSet 11751329_s_at) / Fold change (ACY-1035/veh), FGFR1OP (ProbeSet 11751329_s_at) / Fold change (Aza/veh), VPS36 (ProbeSet 11739960_a_at) / Fold change (ACY-1035/veh), VPS36 (ProbeSet 11739960_a_at) / RFU SYPL1 (11715823_x_at) / Fold change /veh SYPL1 (11715823_x_at) / RFU IGFBP7 (11715501_s_at) / Fold change /veh IGFBP7 (11715501_s_at) / RFU REEP3 (11722064_at) / Fold change /veh REEP3 (11722064_at) / RFU IGLL1 (11728026_x_at) / Fold change /veh IGLL1 (11728026_x_at): dose or concentration left out as unconfirmed
Settings: MV-4-11 cells, 48 hours

Structure (SMILES): Nc1ccc(-c2cccs2)cc1NC(=O)c1ccc2c(c1)cc(C1CC1)n2CCN1CCOCC1 [ACY-1035]
- RFU KRTAP5-7 /// NADSYN1 (11734609_at): 11.39 RFU
